Experimental data: ChEMBL document CHEMBL5303304, “EUbOPEN Chemogenomics Library - IncuCyte” (2023)
Where “and” joins values, the source holds several entries; their conditions need not be identical. Equal entries are not always repeated.

What was measured:
Assay type in all cases: toxicity, cell-based
Fibroblast = assay: Incucyte cell viability with human fibroblast; conditions: 10 µM, compound concentration 10 uM
HEK-293T = assay: Incucyte cell viability with HEK293T; conditions: human, 10 µM, compound concentration 10 uM
U2OS = assay: Incucyte cell viability with U2OS; conditions: human, 10 µM, compound concentration 10 uM
Also: unitless GR value; below 1 slowed growth and below 0 cell loss.

Compound	Growth Rate (HEK-293T; 0 h, replicate number 1)	Growth Rate (Fibroblast; 6 h, replicate number 1)	Growth Rate (Fibroblast; 6 h, replicate number 2)	Growth Rate (Fibroblast; 12 h, replicate number 2)	Growth Rate (Fibroblast; 18 h, replicate number 2)	Growth Rate (Fibroblast; 24 h, replicate number 2)	Growth Rate (HEK-293T; 6 h, replicate number 1)	Growth Rate (HEK-293T; 6 h, replicate number 2)	Growth Rate (HEK-293T; 12 h, replicate number 1)	Growth Rate (HEK-293T; 12 h, replicate number 2)	Growth Rate (HEK-293T; 18 h, replicate number 1)	Growth Rate (HEK-293T; 18 h, replicate number 2)	Growth Rate (HEK-293T; 24 h, replicate number 1)	Growth Rate (HEK-293T; 24 h, replicate number 2)	Growth Rate (U2OS; 18 h, replicate number 2)	Growth Rate (U2OS; 24 h, replicate number 2)	Growth Rate (U2OS; 6 h, replicate number 1)	Growth Rate (U2OS; 12 h, replicate number 1)	Growth Rate (U2OS; 18 h, replicate number 1)	Growth Rate (U2OS; 24 h, replicate number 1)	also measured
CC(N)C1CCC(C(=O)Nc2ccncc2)CC1 (configuration not stated)	-0.35																				Growth Rate (Fibroblast; 0 h, replicate number 1): -0.76; Growth Rate (Fibroblast; 18 h, replicate number 1): -0.47; Growth Rate (Fibroblast; 24 h, replicate number 1): 0.52; Growth Rate (HEK-293T; 0 h, replicate number 2): 0.58; Growth Rate (U2OS; 0 h, replicate number 1): 0.26; Growth Rate (U2OS; 0 h, replicate number 2): -0.73
CN1CCN(C(=O)Cc2ccc(N/C(=C3\C(=O)Nc4cc(Cl)ccc43)c3ccccc3)cc2)CC1		0.12	-0.1	0.01	0.21	0.28	0.26	0.83	0.71	0.92	0.84	0.82	0.8	0.73	0.7	0.58					Growth Rate (Fibroblast; 0 h, replicate number 2): 0.06; Growth Rate (Fibroblast; 12 h, replicate number 1): 0.24; Growth Rate (Fibroblast; 18 h, replicate number 1): 0.44; Growth Rate (Fibroblast; 24 h, replicate number 1): 0.48; Growth Rate (U2OS; 6 h, replicate number 2): 0.9; Growth Rate (U2OS; 12 h, replicate number 2): 0.86
Cc1cc(=O)oc2cc(NC(=O)[C@H](Cc3ccc(I)cc3)NC(=O)[C@H]3N[C@@H]4CC[C@H]3C4)ccc12.O=C(O)C(F)(F)F			-0.13	0.19	0.35	0.61	-0.02		0.55		0.61		0.76		0.92	0.85	0.26	0.89	0.97	0.88	Growth Rate (Fibroblast; 0 h, replicate number 1): -1; Growth Rate (U2OS; 0 h, replicate number 1): -0.48
Cl.Clc1ccc(OC[C@H]2CCN2)cn1	0.45	-0.66	-0.05	0.34	0.83		0.64	0.93		0.94	0.8		0.83		0.97	0.97	-0.1	0.58	0.72	0.76	Growth Rate (U2OS; 0 h, replicate number 1): -0.28; Growth Rate (U2OS; 6 h, replicate number 2): 0.54
Clc1ccccc1C(c1ccccc1)(c1ccccc1)n1cccn1	0.43	0.64		0.39		0.54	0.05	0.9	0.26		0.83		0.89		0.94		0.24	0.78	1	0.91	Growth Rate (Fibroblast; 18 h, replicate number 1): 0.46; Growth Rate (HEK-293T; 0 h, replicate number 2): 0.27 and 0.15; Growth Rate (U2OS; 0 h, replicate number 2): -0.86; Growth Rate (U2OS; 6 h, replicate number 2): 0.65; Growth Rate (U2OS; 12 h, replicate number 2): 0.9
Cc1ccc(-c2c(C(=O)CF)n(CCCO)c3ncnc(N)c23)cc1			-1	-0.21	0.3	0.41	-0.57	0.16	0.54	0.68	0.96	0.85		0.87	0.96	0.98		0.92			Growth Rate (Fibroblast; 18 h, replicate number 1): 0.29; Growth Rate (Fibroblast; 24 h, replicate number 1): 0.33; Growth Rate (U2OS; 0 h, replicate number 1): 0.43; Growth Rate (U2OS; 0 h, replicate number 2): -0.79; Growth Rate (U2OS; 6 h, replicate number 2): 0.44
COc1cc(C(=O)O)ncc1C#Cc1ccccc1NS(=O)(=O)c1cccc2c(N(C)C)ccnc12 [MSC-0516]	-0.31		0.44	0.77	0.99	0.93									0.91	0.9	0.68	0.92	0.8	0.89	Growth Rate (Fibroblast; 0 h, replicate number 1): -1; Growth Rate (HEK-293T; 0 h, replicate number 2): -0.98; Growth Rate (U2OS; 0 h, replicate number 2): 0.61; Growth Rate (U2OS; 6 h, replicate number 2): 0.86; Growth Rate (U2OS; 12 h, replicate number 2): 0.75
CC(C)(O)C(=O)N1CCN(c2ccc(C(F)(F)F)c(C3=C(c4c[nH]c5ccccc45)C(=O)NC3=O)c2)CC1	0.94	-0.74			0.73	0.3	0.81	0.29		0.57	0.83	0.49	0.61	0.42	0.8	0.83		0.93	0.9	0.76	Growth Rate (Fibroblast; 0 h, replicate number 2): -1; Growth Rate (Fibroblast; 12 h, replicate number 1): -1; Growth Rate (U2OS; 0 h, replicate number 1): -0.61
CCN1CCN(Cc2ccc(Nc3ncc(F)c(-c4cc(F)c5nc(C)n(C(C)C)c5c4)n3)nc2)CC1 [ABEMACICLIB]	-1						0.74	0.78	0.31	0.37	0.35	0.44	0.54	0.44	0.56	0.4		0.83	0.62	0.63	Growth Rate (Fibroblast; 0 h, replicate number 1): -1; Growth Rate (HEK-293T; 0 h, replicate number 2): -0.03; Growth Rate (U2OS; 0 h, replicate number 1): -0.95; Growth Rate (U2OS; 12 h, replicate number 2): 0.9
CN1C(=O)Cc2ccc(-c3ccc(C[C@@H](C#N)NC(=O)[C@H]4N[C@@H]5CC[C@H]4C5)c(F)c3)cc21	0.62	0.56	-0.72	0.43	0.5	0.85			0.89	0.82	0.94	0.88	0.87	0.95			0.49				Growth Rate (Fibroblast; 0 h, replicate number 1): -1; Growth Rate (Fibroblast; 12 h, replicate number 1): 0.65; Growth Rate (Fibroblast; 18 h, replicate number 1): 0.72; Growth Rate (Fibroblast; 24 h, replicate number 1): 0.86
Cn1cc(-c2cnc3ccc4ccc(CS(=O)(=O)NCc5ccccn5)cc4c(=O)c3c2)cn1 [MK-8033]		0.98	-0.01				0.24	0	0.39	0.34	0.56	0.63	0.71	0.78			0.9		0.88	0.81	Growth Rate (Fibroblast; 0 h, replicate number 1): -1; Growth Rate (U2OS; 0 h, replicate number 2): 0.2; Growth Rate (U2OS; 6 h, replicate number 2): 0.76; Growth Rate (U2OS; 12 h, replicate number 2): 0.75
CCCC(=O)C1CCN(c2ncnc3c2CN(C(=O)c2ccc(-c4ccccc4)cc2)CC3)CC1		0.84	-1	0.73	0.93	0.9	0.24	0.35		0.75		0.82		0.74			0.51	0.92	0.81	0.83	Growth Rate (Fibroblast; 18 h, replicate number 1): 0.74
